Assay results from patent publication US20250228882A1, “ORALLY-BIOAVAILABLE NUCLEOSIDE ANALOGS” (Venatorx Pharmaceuticals, Inc., priority 2022, published 2025).
Where two headings read alike, the source gives them in different places.

Legend:
[1] = Stability in human fasted-state simulated gastric fluid and fasted-state simulated intestinal fluid; type: physicochemical; conditions: timepoints 0-120 min
Protocol: The chemical stability of example compounds was determined using human fasted-state simulated gastric fluid, and fasted-state simulated intestinal fluid, prepared as follows.
• Weigh 1.0 g NaCl and dissolved it in 0.49 L water • Adjust pH value to 1.2, and adjust volume to 0.5 L in water • Filter the NaCl/HCl buffer through a 0.22 μm filter • Weigh 3.0 mg FaSSGF powder (Vendor: Biorelevant, catalog #FFF01), dissolve it in 50 mL NaCl/HCl buffer • Dissolve the FaSSGF powder in NaCl/HCl buffer and make up the volume to 50 mL • Store at 4° C. for future use.
• Weigh 0.695 g NaOH, 1.115 g maleic acid and 2.005 g NaCl, and dissolve in 0.49 L water • Adjusted the pH value to 6.8 and adjust volume to 0.5 L with water • Filter the maleic acid buffer through a 0.22 μm filter • Weigh 89.5 mg FaSSIF-V2 powder (Vendor: Biorelevant catalog #V2FAS01), dissolve in 50 mL maleic buffer • Dissolve the FaSSIF-V2 powder in maleic buffer and make up the volume to 50 mL • Store at 4° C. for future use.
Briefly, test compounds were prepared as 50 μM working solutions in DMSO, and 2 μL test compound working solution was added to 98 μL of each buffer respectively in six tubes (for six timepoints, 0, 5, 15, 30, 60, and 120 min) and gently mixed. At each corresponding timepoint, the reaction was stopped by addition of 300 μL of quenching solution (methanol solution of 5 ng/mL terfenadine and 10 ng/mL of tolbutamide). Each tube was vortexed for 1 min, centrifuged at 4,000 rpm at 4° C. for 15 min, then 200 μL of supernatant was removed. The half-life of each example compound was determined using LC-MS/MS analysis, using the internal standards present in the quenching solution.

[2] = Bidirectional Caco-2 permeability assay; type: in vitro ADME; conditions: human
Summary of the method: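 Caco-2 monolayers (passage 39, 19-day culture, TEER >600 Ohms/cm^2) dosed A→B and B→A in duplicate, 90 min at 37 °C without shaking. Donor and receiver samples at 10 and 90 min quantified by LC/MS/MS. Papp (cm/s), efflux ratio and recovery calculated; ER >2 flags potential efflux substrate.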

[3] = fasted-state simulated gastric fluid (FaSSGF), human fasted-state simulated gastric fluid, pH 1.2, LC-MS/MS, read-out: FaSSGF t1/2
[4] = human fasted-state simulated intestinal fluid (FaSSIF-V2), pH 6.8, LC-MS/MS, read-out: FaSSIF t1/2

## CCC(CC)C(=O)Nc1ncnn2c([C@]3(C#N)O[C@H](COC(=O)CC4CCCCC4)[C@@H](OC(=O)[C@@H](N)C(C)(C)C)[C@H]3O)ccc12 [Compound 2, (2R,3S,4R,5R)-5-cyano-2-((2-cyclohexylacetoxy)methyl)-5-(4-(2-ethylbutanamido)pyrrolo[2,1-f][1,2,4]triazin-7-yl)-4-hydroxytetrahydrofuran-3-yl (S)-2-amino-3,3-dimethylbutanoate]
[1]; [3]
  half-life at 1 µM: > 6.22 h
[1]; [4]
  half-life at 1 µM: > 6.22 h
[2]; Caco-2
  Papp A→B at 90 min: 4.08 ×10⁻⁶ cm/s
  Papp B→A at 90 min: 6.13 ×10⁻⁶ cm/s
  efflux ratio at 90 min: 1.5

## CCCC(=O)Nc1ncnn2c([C@]3(C#N)O[C@H](COC(=O)CC4CCCCC4)[C@@H](OC(=O)[C@@H](N)C(C)(C)C)[C@H]3O)ccc12 [Compound 1, (2R,3S,4R,5R)-5-(4-butyramidopyrrolo[2,1-f][1,2,4]triazin-7-yl)-5-cyano-2-((2-cyclohexylacetoxy)methyl)-4-hydroxytetrahydrofuran-3-yl (S)-2-amino-3,3-dimethylbutanoate]
[1]; [3]
  half-life at 1 µM: 1.61 h
[1]; [4]
  half-life at 1 µM: > 6.22 h
[2]; Caco-2
  Papp A→B at 90 min: 6.8 ×10⁻⁶ cm/s
  Papp B→A at 90 min: 8.72 ×10⁻⁶ cm/s
  efflux ratio at 90 min: 1.28

## CC(C)(C)[C@@H](N)C(=O)OC[C@H]1O[C@@](C#N)(c2ccc3c(N)ncnn23)[C@H](O)[C@@H]1OC(=O)CC1CCCCC1 [Compound 37, ((2R,3S,4R,5R)-5-(4-aminopyrrolo[2,1-f][1,2,4]triazin-7-yl)-5-cyano-3-(2-cyclohexylacetoxy)-4-hydroxytetrahydrofuran-2-yl)methyl (R)-2-amino-3,3-dimethylbutanoate]
[1]; [3]
  half-life at 1 µM: > 6.21 h
[1]; [4]
  half-life at 1 µM: > 6.21 h
[2]; Caco-2
  efflux ratio at 90 min: 2.95

## COC(C)(C)C(=O)Nc1ncnn2c([C@]3(C#N)O[C@H](COC(=O)CC4CCCCC4)[C@@H](OC(=O)[C@@H](N)C(C)(C)C)[C@H]3O)ccc12 [Compound 3, (2R,3S,4R,5R)-5-cyano-2-((2-cyclohexylacetoxy)methyl)-4-hydroxy-5-(4-(2-methoxy-2-methylpropanamido)pyrrolo[2,1-f][1,2,4]triazin-7-yl)tetrahydrofuran-3-yl (S)-2-amino-3,3-dimethylbutanoate]
[1]; [3]
  half-life at 1 µM: 0.347 h
[1]; [4]
  half-life at 1 µM: > 6.22 h
[2]; Caco-2
  Papp A→B at 90 min: 8.49 ×10⁻⁶ cm/s
  Papp B→A at 90 min: 9.3 ×10⁻⁶ cm/s
  efflux ratio at 90 min: 1.1

## CC(C)NC(=O)Nc1ncnn2c([C@]3(C#N)O[C@H](COC(=O)Cc4ccccc4)[C@@H](OC(=O)[C@@H](N)C(C)(C)C)[C@H]3O)ccc12 [Compound 29, (2R,3S,4R,5R)-5-cyano-4-hydroxy-5-(4-(3-isopropylureido)pyrrolo[2,1-f][1,2,4]triazin-7-yl)-2-((2-phenylacetoxy)methyl)tetrahydrofuran-3-yl (S)-2-amino-3,3-dimethylbutanoate]
[2]; Caco-2 monolayer, apical to basolateral, 90-minute incubation, read-out: Papp, A-B
  Papp A→B at 90 min: 1.69 ×10⁻⁶ cm/s
[2]; Caco-2 monolayer, basolateral to apical, 90-minute incubation, read-out: Papp, B-A
  Papp B→A at 90 min: 19.6 ×10⁻⁶ cm/s
[2]; Caco-2 monolayer, ER>2 indicates potential efflux substrate, read-out: ER (efflux ratio)
  efflux ratio at 90 min: 11.6

## CCOC(C)(C)C(=O)Nc1ncnn2c([C@]3(C#N)O[C@H](COC(=O)CC4CCCCCC4)[C@@H](OC(=O)[C@@H](N)C(C)(C)C)[C@H]3O)ccc12 [Compound 67, (2R,3S,4R,5R)-5-cyano-2-((2-cycloheptylacetoxy)methyl)-5-(4-(2-ethoxy-2-methylpropanamido)pyrrolo[2,1-f][1,2,4]triazin-7-yl)-4-hydroxytetrahydrofuran-3-yl (S)-2-amino-3,3-dimethylbutanoate]
[2]; Caco-2
  Papp A→B at 90 min: 4.78 ×10⁻⁶ cm/s
  Papp B→A at 90 min: 2.54 ×10⁻⁶ cm/s
  efflux ratio at 90 min: 0.53
